Reference: paper PMC3626541, “A first in human, safety, pharmacokinetics, and clinical activity phase I study of once weekly administration of the Hsp90 inhibitor ganetespib (STA-9090) in patients with solid malignancies” (BMC Cancer, 2013)

Test system: patients with advanced solid tumors
Assay: Safety: adverse events (NCI CTCAE v3.0), ECG
Format: in vivo, human
Protocol: Patients’ demographics and medical history were recorded at baseline. Physical examination and PS were assessed at baseline and on Day 1 of each cycle. Adverse events (AEs), vital signs, hematology and chemistry values, and creatinine clearance were assessed at baseline and weekly during treatment. Toxicity was graded using National Cancer Institute Common Terminology Criteria for Adverse Events (NCI CTCAE), version 3.0. An electrocardiogram (ECG) was performed at baseline, before and after treatment on Days 1 and 15 of Cycles 1 and 2, and on Day 15 of even-numbered cycles thereafter. CT scans were done at baseline and every 8 weeks thereafter. Tumor response was assessed using Response Evaluation Criteria in Solid Tumors (RECIST, v1.0), with confirmation of responses performed at least 4 weeks later.

SMILES: CC(C)c1cc(-c2n[nH]c(=O)n2-c2ccc3c(ccn3C)c2)c(O)cc1O [Ganetespib, 5-[2,4-dihydroxy-5-(1 methyl-ethyl)phenyl]-2,4 dihydro-4-(1-methyl-1H indol-5 yl)-3H-1,2,4 triazole-3-one]
- Any event, AE of any grade, Number (%) of patients (7-114 mg/m^2, n = 25): 25 (100) n (%)
- Any event, CTCAE Grade 3 and 4 AE, Number (%) of patients (7-114 mg/m^2, n = 25): 17 (68) n (%)
- Any event, serious adverse events, Number (%) of patients (7-114 mg/m^2, n = 25): 6 (24) n (%)
- Arthralgia, CTCAE Grade 3 and 4 AE, Number (%) of patients (7-114 mg/m^2, n = 25): 1 (4) n (%)
- Asthenia, AE of any grade, Number (%) of patients (7-114 mg/m^2, n = 25): 2 (8) n (%)
- Asthenia, CTCAE Grade 3 and 4 AE, Number (%) of patients (7-114 mg/m^2, n = 25): 1 (4) n (%)
- Asthenia, serious adverse events, Number (%) of patients (7-114 mg/m^2, n = 25): 0 n (%)
- Back pain, AE of any grade, Number (%) of patients (7-114 mg/m^2, n = 25): 4 (16) n (%)
- Constipation, AE of any grade, Number (%) of patients (7-114 mg/m^2, n = 25): 5 (20) n (%)
- Decreased appetite, AE of any grade, Number (%) of patients (7-114 mg/m^2, n = 25): 2 (8) n (%)
- Dehydration, AE of any grade, Number (%) of patients (7-114 mg/m^2, n = 25): 1 (4) n (%)
- Dehydration, CTCAE Grade 3 and 4 AE, Number (%) of patients (7-114 mg/m^2, n = 25): 1 (4) n (%)
- Dehydration, serious adverse events, Number (%) of patients (7-114 mg/m^2, n = 25): 0 n (%)
- Diarrhea, CTCAE Grade 3 and 4 AE, Number (%) of patients (7-114 mg/m^2, n = 25): 1 (4) n (%)
- Dizziness, AE of any grade, Number (%) of patients (7-114 mg/m^2, n = 25): 1 (4) n (%)
- Dry mouth, AE of any grade, Number (%) of patients (7-114 mg/m^2, n = 25): 2 (8) n (%)
- Dyspnea, AE of any grade, Number (%) of patients (7-114 mg/m^2, n = 25): 4 (16) n (%)
- Extremity pain, AE of any grade, Number (%) of patients (7-114 mg/m^2, n = 25): 4 (16) n (%)
- Fatigue, AE of any grade, Number (%) of patients (7-114 mg/m^2, n = 25): 12 (48) n (%)
- Fatigue, CTCAE Grade 3 and 4 AE, Number (%) of patients (7-114 mg/m^2, n = 25): 1 (4) n (%)
- Headache, AE of any grade, Number (%) of patients (7-114 mg/m^2, n = 25): 2 (8) n (%)
- Hyperbilirubinemia, CTCAE Grade 3 and 4 AE, Number (%) of patients (7-114 mg/m^2, n = 25): 1 (4) n (%)
- Hypokalemia, AE of any grade, Number (%) of patients (7-114 mg/m^2, n = 25): 2 (8) n (%)
- Hypokalemia, CTCAE Grade 3 and 4 AE, Number (%) of patients (7-114 mg/m^2, n = 25): 0 n (%)
- Hyponatremia, CTCAE Grade 3 and 4 AE, Number (%) of patients (7-114 mg/m^2, n = 25): 3 (12) n (%)
- Hypophosphatemia, AE of any grade, Number (%) of patients (7-114 mg/m^2, n = 25): 5 (20) n (%)
- Hypophosphatemia, CTCAE Grade 3 and 4 AE, Number (%) of patients (7-114 mg/m^2, n = 25): 2 (8) n (%)
- Insomnia, AE of any grade, Number (%) of patients (7-114 mg/m^2, n = 25): 2 (8) n (%)
- Musculoskeletal chest pain, AE of any grade, Number (%) of patients (7-114 mg/m^2, n = 25): 2 (8) n (%)
- Nausea, AE of any grade, Number (%) of patients (7-114 mg/m^2, n = 25): 7 (28) n (%)
- Peripheral edema, AE of any grade, Number (%) of patients (7-114 mg/m^2, n = 25): 3 (12) n (%)
- Pneumonia, serious adverse events, Number (%) of patients (7-114 mg/m^2, n = 25): 0 n (%)
- Rash, AE of any grade, Number (%) of patients (7-114 mg/m^2, n = 25): 4 (16) n (%)
- Serum amylase elevated, CTCAE Grade 3 and 4 AE, Number (%) of patients (7-114 mg/m^2, n = 25): 1 (4) n (%)
- Spinal cord compression, CTCAE Grade 3 and 4 AE, Number (%) of patients (7-114 mg/m^2, n = 25): 2 (8) n (%)
- Urinary tract infection, AE of any grade, Number (%) of patients (7-114 mg/m^2, n = 25): 2 (8) n (%)
- Vomiting, AE of any grade, Number (%) of patients (7-114 mg/m^2, n = 25): 4 (16) n (%)
- Weight decreased, AE of any grade, Number (%) of patients (7-114 mg/m^2, n = 25): 1 (4) n (%)
- ALT elevated, AE of any grade, Number (%) of patients (7-114 mg/m^2, n = 25, first of two ALT elevated lines): 5 (20) n (%)
- ALT elevated, AE of any grade, Number (%) of patients (7-114 mg/m^2, n = 25, second of two ALT elevated lines): 3 (12) n (%)
- Incidence of diarrhea (7–114 mg/m^2 dose levels): 80%
- Incidence of fatigue (7–114 mg/m^2 dose levels): 48%
- ALT elevation, CTCAE Grade 3 and 4 AE, Number (%) of patients (150-216 mg/m^2, n = 22): 1 (4.5) n (%)
- AST elevated, AE of any grade, Number (%) of patients (150-216 mg/m^2, n = 22): 4 (18.2) n (%)
- Abdominal distension, AE of any grade, Number (%) of patients (150-216 mg/m^2, n = 22): 3 (13.6) n (%)
- Abdominal pain, AE of any grade, Number (%) of patients (150-216 mg/m^2, n = 22): 10 (45.5) n (%)
- Abdominal pain, serious adverse events, Number (%) of patients (150-216 mg/m^2, n = 22): 1 (4.5) n (%)
- Anemia, AE of any grade, Number (%) of patients (150-216 mg/m^2, n = 22): 5 (22.7) n (%)
- Any event, AE of any grade, Number (%) of patients (150-216 mg/m^2, n = 22): 22 (100) n (%)
- Any event, CTCAE Grade 3 and 4 AE, Number (%) of patients (150-216 mg/m^2, n = 22): 14 (63.6) n (%)
- Any event, serious adverse events, Number (%) of patients (150-216 mg/m^2, n = 22): 6 (27.3) n (%)
- Arthralgia, CTCAE Grade 3 and 4 AE, Number (%) of patients (150-216 mg/m^2, n = 22): 0 n (%)
- Asthenia, AE of any grade, Number (%) of patients (150-216 mg/m^2, n = 22): 4 (18.2) n (%)
- Asthenia, CTCAE Grade 3 and 4 AE, Number (%) of patients (150-216 mg/m^2, n = 22): 1 (4.5) n (%)
- Asthenia, serious adverse events, Number (%) of patients (150-216 mg/m^2, n = 22): 1 (4.5) n (%)
- Back pain, AE of any grade, Number (%) of patients (150-216 mg/m^2, n = 22): 2 (9.1) n (%)
